According to PMC6134108, “Nystatin-like Pseudonocardia polyene B1, a novel disaccharide-containing antifungal heptaene antibiotic” (Scientific Reports, 2018):
In brackets after ≈: the same amount, converted by molar mass. Read-outs that look alike come from different tables or passages of the source.

How the values were obtained:
[1] = rats, oral administration
[2] = Single intravenous dose acute toxicity; format: in vivo, mice; settings: ICR, mouse, in vivo, single intravenous administration
Experimental: (§1) All in vivo mouse toxicity studies were conducted according to Testing Guidelines for Safety Evaluation of Drugs[32] and the Organisation for Economic Co-operation and Development (OECD) Guideline[33]. Male and female ICR mice were used 7 weeks old for the toxicity test. […] The single doses were 1, 2.5, and 5 mg per kg body weight.

[3] = tested on: ICR mice; assay: Single intravenous dose acute toxicity; format: in vivo
Experimental: as §1

[4] = tested on: C. albicans SL28; assay: MIC assay (CLSI M27-A3 microbroth); format: cell-based; settings: Candida albicans, SL28, read-out: Antifungal activity (MIC)
Experimental: (§2) For the minimum inhibitory concentration (MIC) assay, strains for testing were grown on YPD agar for 24 hours, and subcultured to YPD broth medium. Whole strains were incubated for 18 hours at 35 °C by shaking incubator. Grown organisms were diluted with fresh RPMI 1640 medium to appropriate concentration, 5 × 10^4 CFU/ml. Cultures were inoculated to 96-well plates containing antifungal medium. All compounds were dissolved using Dimethyl Sulfoxide (DMSO) and diluted broth media. Fungal diluted solution and antifungal medium were mixed at 1:1 ratio so total 200 ul mixed medium was made. Whole experiment plates were incubated for 24 hours at 37 °C. […] The MICs were calculated in duplicate using the Clinical and Laboratory Standards Institute M27-A3 microbroth methodology. Hemolysis experiments and the 3-(4,5-dimethylthiazol-2-yl)-5-(3-carboxymethoxyphenyl)-2-(4-sulfophenyl)-2H-tetrazolium (MTS) cell proliferation colorimetric assay were performed following known procedures[12],[27],[29].

[5] = tested on: Saccharomyces cerevisiae ATCC9035; assay: MIC assay (CLSI M27-A3 microbroth); format: cell-based; settings: Saccharomyces cerevisiae, ATCC9035, read-out: Antifungal activity (MIC)
Experimental: as §2

[6] = tested on: Cryptococcus humicola ATCC9949; assay: MIC assay (CLSI M27-A3 microbroth); format: cell-based; settings: Vanrija humicola, ATCC9949, read-out: Antifungal activity (MIC)
Experimental: as §2

[7] = tested on: C. albicans SC5314; assay: MIC assay (CLSI M27-A3 microbroth); format: cell-based; settings: Candida albicans, SC5314, read-out: Antifungal activity (MIC)
Experimental: as §2

[8] = tested on: Candida albicans KCTC7965; assay: MIC assay (CLSI M27-A3 microbroth); format: cell-based; settings: Candida albicans, KCTC7965, read-out: Antifungal activity (MIC)
Experimental: as §2

[9] = tested on: C. albicans SL38; assay: MIC assay (CLSI M27-A3 microbroth); format: cell-based; settings: Candida albicans, SL38, read-out: Antifungal activity (MIC)
Experimental: as §2

[10] = in vivo; settings: mouse, 0.5 mg/kg
Source text: Supplement 41598_2018_31801_MOESM1_ESM.docx, table 4: Table S4.

[11] = tested on: ergosterol-containing membranes; assay: Preliminary SPR experiments; format: binding; settings: ergosterol- vs cholesterol-containing liposomes, unpublished data
[12] = tested on: horse blood cells; format: cell-based; settings: 90% hemolysis against horse blood cells; ± percentage standard deviation
Experimental: as §2

[13] = 7-day repeated intravenous dose toxicity; format: in vivo, mice; settings: both sexes, ICR, mouse, in vivo; mice, 7-day repeated intravenous doses; read-out: MTD, maximal tolerated dose
Experimental: (§3) All in vivo mouse toxicity studies were conducted according to Testing Guidelines for Safety Evaluation of Drugs[32] and the Organisation for Economic Co-operation and Development (OECD) Guideline[33]. Male and female ICR mice were used 7 weeks old for the toxicity test. […]

[14] = tested on: ICR mice; assay: 7-day repeated intravenous dose toxicity; format: in vivo; settings: repeated iv 1.5mg/kg
Experimental: as §3

[15] = in vivo; settings: male, SD, rat, plasma, iv, 1 mg/kg

Q: What does the source list for `CC(=O)NC1C(OC2C(C)OC(OC3C=CC=CC=CC=CC=CC=CC=CC(C)C(O)C(C)C(C)OC(=O)CC(O)CC(O)CC(O)CCC(O)C(O)CC4(O)CC(O)C(C(=O)O)C(C3)O4)C(O)C2N)OC(CO)C(O)C1O` (stereo not shown) [NPP B1, Nystatin-like Pseudonocardia polyene B1]?
A: detection in the plasma following oral administration [1]: not detected; LD50 at 7 days ([2]; female mice, read-out: median lethal dose (LD50)): 2.95 mg/kg; LD50 at 7 days ([2]; male mice, read-out: median lethal dose (LD50)): 2.95 mg/kg; LD50 at 7 days ([2]; both sexes, mice, read-out: LD50, median lethal dose (dose causing 50% mortality)): 2.95 mg/kg; Deaths on day after start of treatment ([3]; female, single iv 1mg/kg, day 0): 0; Deaths on day after start of treatment ([3]; female, single iv 1mg/kg, day 1): 0; Deaths on day after start of treatment ([3]; female, single iv 1mg/kg, day 2): 0; Deaths on day after start of treatment ([3]; female, single iv 1mg/kg, day 3): 0; Deaths on day after start of treatment ([3]; female, single iv 1mg/kg, day 4): 0; Deaths on day after start of treatment ([3]; female, single iv 1mg/kg, day 5): 0; Deaths on day after start of treatment ([3]; female, single iv 1mg/kg, day 6): 0; Deaths on day after start of treatment ([3]; female, single iv 1mg/kg, day 7): 0; Deaths on day after start of treatment ([3]; female, single iv 2.5mg/kg, day 0): 1; Deaths on day after start of treatment ([3]; female, single iv 2.5mg/kg, day 1): 0; Deaths on day after start of treatment ([3]; female, single iv 2.5mg/kg, day 2): 1; Deaths on day after start of treatment ([3]; female, single iv 2.5mg/kg, day 3): 0; Deaths on day after start of treatment ([3]; female, single iv 2.5mg/kg, day 4): 0; Deaths on day after start of treatment ([3]; female, single iv 2.5mg/kg, day 5): 0; Deaths on day after start of treatment ([3]; female, single iv 2.5mg/kg, day 6): 0; Deaths on day after start of treatment ([3]; female, single iv 2.5mg/kg, day 7): 0; Deaths on day after start of treatment ([3]; female, single iv 5mg/kg, day 0): 3; Deaths on day after start of treatment ([3]; female, single iv 5mg/kg, day 1): 2; Deaths on day after start of treatment ([3]; female, single iv 5mg/kg, day 2): 0; Deaths on day after start of treatment ([3]; female, single iv 5mg/kg, day 3): 0; Deaths on day after start of treatment ([3]; female, single iv 5mg/kg, day 4): 0; Deaths on day after start of treatment ([3]; female, single iv 5mg/kg, day 5): 0; Deaths on day after start of treatment ([3]; female, single iv 5mg/kg, day 6): 0; Deaths on day after start of treatment ([3]; female, single iv 5mg/kg, day 7): 0; Deaths on day after start of treatment ([3]; male, single iv 1mg/kg, day 0): 0; Deaths on day after start of treatment ([3]; male, single iv 1mg/kg, day 1): 0; Deaths on day after start of treatment ([3]; male, single iv 1mg/kg, day 2): 0; Deaths on day after start of treatment ([3]; male, single iv 1mg/kg, day 3): 0; Deaths on day after start of treatment ([3]; male, single iv 1mg/kg, day 4): 0; Deaths on day after start of treatment ([3]; male, single iv 1mg/kg, day 5): 0; Deaths on day after start of treatment ([3]; male, single iv 1mg/kg, day 6): 0; Deaths on day after start of treatment ([3]; male, single iv 1mg/kg, day 7): 0; Deaths on day after start of treatment ([3]; male, single iv 2.5mg/kg, day 0): 1; Deaths on day after start of treatment ([3]; male, single iv 2.5mg/kg, day 1): 0; Deaths on day after start of treatment ([3]; male, single iv 2.5mg/kg, day 2): 1; Deaths on day after start of treatment ([3]; male, single iv 2.5mg/kg, day 3): 0; Deaths on day after start of treatment ([3]; male, single iv 2.5mg/kg, day 4): 0; Deaths on day after start of treatment ([3]; male, single iv 2.5mg/kg, day 5): 0; Deaths on day after start of treatment ([3]; male, single iv 2.5mg/kg, day 6): 0; Deaths on day after start of treatment ([3]; male, single iv 2.5mg/kg, day 7): 0; Deaths on day after start of treatment ([3]; male, single iv 5mg/kg, day 0): 4; Deaths on day after start of treatment ([3]; male, single iv 5mg/kg, day 1): 0; Deaths on day after start of treatment ([3]; male, single iv 5mg/kg, day 2): 1; Deaths on day after start of treatment ([3]; male, single iv 5mg/kg, day 3): 0; Deaths on day after start of treatment ([3]; male, single iv 5mg/kg, day 4): 0; Deaths on day after start of treatment ([3]; male, single iv 5mg/kg, day 5): 0; Deaths on day after start of treatment ([3]; male, single iv 5mg/kg, day 6): 0; Deaths on day after start of treatment ([3]; male, single iv 5mg/kg, day 7): 0; MIC [4]: 4 µg/mL (≈ 3.55 µM); MIC [5]: 2 µg/mL (≈ 1.77 µM); MIC [6]: 1 µg/mL (≈ 0.887 µM); MIC [7]: 4 µg/mL (≈ 3.55 µM); MIC [8]: 2 µg/mL (≈ 1.77 µM); MIC [9]: 2 µg/mL (≈ 1.77 µM); AUC(0-inf) ([10]; read-out: AUC0-inf): 15100 ng·h/mL; AUC(0-t) ([10]; read-out: AUC0-t): 5890 ng·h/mL; clearance ([10]; read-out: CL (converted)): 0.5 mL/min/kg; MRT inf ([10]; read-out: MRTinf): 17 h; Vd ([10]; read-out: Vss): 0.6 L/kg; half-life ([10]; read-out: t1/2 (converted)): 12.3 h; binding preference [11]: binds preferentially to ergosterol-containing liposomes; Hemolytic activity (MHC, minimum hemolytic concentration) [12]: 13.60 ± 0.19 µg/mL; MTD at 7 days [13]: > 1.5 mg/kg; Deaths on day after start of treatment ([14]; female, day 0): 0; Deaths on day after start of treatment ([14]; female, day 1): 0; Deaths on day after start of treatment ([14]; female, day 2): 0; Deaths on day after start of treatment ([14]; female, day 3): 0; Deaths on day after start of treatment ([14]; female, day 4): 0; Deaths on day after start of treatment ([14]; female, day 5): 0; Deaths on day after start of treatment ([14]; female, day 6): 0; Deaths on day after start of treatment ([14]; female, day 7): 0; Deaths on day after start of treatment ([14]; male, day 0): 0; Deaths on day after start of treatment ([14]; male, day 1): 0; Deaths on day after start of treatment ([14]; male, day 2): 0; Deaths on day after start of treatment ([14]; male, day 3): 0; Deaths on day after start of treatment ([14]; male, day 4): 0; Deaths on day after start of treatment ([14]; male, day 5): 0; Deaths on day after start of treatment ([14]; male, day 6): 0; AUC(0-inf) [15]: 13600 ng·h/mL; AUC(0-t) [15]: 10300 ng·h/mL; MRT inf [15]: 15.6 h; Vd [15]: 1.1 L/kg; clearance [15]: 1.67 mL/min/kg; half-life [15]: 14.5 h
